According to ChEMBL document CHEMBL1144750, “Scaffold oriented synthesis. Part 2: Design, synthesis and biological evaluation of pyrimido-diazepines as receptor tyrosine kinase inhibitors” (Bioorg Med Chem Lett, 2008):

Assays:
[1] = target: T1, Vascular endothelial growth factor receptor 2 (Homo sapiens, UniProt P35968); experiment: Inhibition of KDR in presence of 1 mM ATP
[2] = target: T2, Receptor-type tyrosine-protein kinase FLT3 (Homo sapiens, UniProt P36888); experiment: Inhibition of Flt3
T2 sequence (P36888 whole entry): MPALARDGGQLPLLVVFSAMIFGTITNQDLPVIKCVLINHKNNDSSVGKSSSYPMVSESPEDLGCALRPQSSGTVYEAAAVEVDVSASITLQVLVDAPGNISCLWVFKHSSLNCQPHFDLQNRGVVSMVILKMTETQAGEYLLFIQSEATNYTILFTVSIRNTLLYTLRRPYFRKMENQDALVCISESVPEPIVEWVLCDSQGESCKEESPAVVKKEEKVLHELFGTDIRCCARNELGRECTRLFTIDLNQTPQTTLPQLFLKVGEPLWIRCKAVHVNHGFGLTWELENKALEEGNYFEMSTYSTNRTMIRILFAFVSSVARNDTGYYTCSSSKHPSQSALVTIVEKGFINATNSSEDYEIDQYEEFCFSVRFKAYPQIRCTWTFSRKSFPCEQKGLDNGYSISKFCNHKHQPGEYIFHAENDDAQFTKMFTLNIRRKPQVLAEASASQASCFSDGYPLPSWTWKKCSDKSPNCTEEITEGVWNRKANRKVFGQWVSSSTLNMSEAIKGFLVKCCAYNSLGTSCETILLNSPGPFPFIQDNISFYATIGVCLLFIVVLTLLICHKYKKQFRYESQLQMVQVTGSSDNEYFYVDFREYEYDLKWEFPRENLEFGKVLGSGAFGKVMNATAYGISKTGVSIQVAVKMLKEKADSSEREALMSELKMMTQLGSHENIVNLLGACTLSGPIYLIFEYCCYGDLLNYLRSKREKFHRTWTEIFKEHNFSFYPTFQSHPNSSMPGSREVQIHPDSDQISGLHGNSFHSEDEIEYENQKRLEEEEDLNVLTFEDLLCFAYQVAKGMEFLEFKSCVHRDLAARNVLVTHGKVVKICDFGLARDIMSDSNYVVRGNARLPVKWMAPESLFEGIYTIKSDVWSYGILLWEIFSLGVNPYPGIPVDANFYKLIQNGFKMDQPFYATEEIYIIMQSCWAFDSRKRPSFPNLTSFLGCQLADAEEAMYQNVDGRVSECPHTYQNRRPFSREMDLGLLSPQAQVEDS

[3] = target: Vascular endothelial growth factor receptor 2 (Mus musculus, UniProt P35918); experiment: Inhibition of VEGF-induced KDR phosphorylation in mouse 3T3 cells; assay type: cell-based, NIH3T3
Chain of Vascular endothelial growth factor receptor 2 (Mus musculus, UniProt P35918) (P35918 whole entry): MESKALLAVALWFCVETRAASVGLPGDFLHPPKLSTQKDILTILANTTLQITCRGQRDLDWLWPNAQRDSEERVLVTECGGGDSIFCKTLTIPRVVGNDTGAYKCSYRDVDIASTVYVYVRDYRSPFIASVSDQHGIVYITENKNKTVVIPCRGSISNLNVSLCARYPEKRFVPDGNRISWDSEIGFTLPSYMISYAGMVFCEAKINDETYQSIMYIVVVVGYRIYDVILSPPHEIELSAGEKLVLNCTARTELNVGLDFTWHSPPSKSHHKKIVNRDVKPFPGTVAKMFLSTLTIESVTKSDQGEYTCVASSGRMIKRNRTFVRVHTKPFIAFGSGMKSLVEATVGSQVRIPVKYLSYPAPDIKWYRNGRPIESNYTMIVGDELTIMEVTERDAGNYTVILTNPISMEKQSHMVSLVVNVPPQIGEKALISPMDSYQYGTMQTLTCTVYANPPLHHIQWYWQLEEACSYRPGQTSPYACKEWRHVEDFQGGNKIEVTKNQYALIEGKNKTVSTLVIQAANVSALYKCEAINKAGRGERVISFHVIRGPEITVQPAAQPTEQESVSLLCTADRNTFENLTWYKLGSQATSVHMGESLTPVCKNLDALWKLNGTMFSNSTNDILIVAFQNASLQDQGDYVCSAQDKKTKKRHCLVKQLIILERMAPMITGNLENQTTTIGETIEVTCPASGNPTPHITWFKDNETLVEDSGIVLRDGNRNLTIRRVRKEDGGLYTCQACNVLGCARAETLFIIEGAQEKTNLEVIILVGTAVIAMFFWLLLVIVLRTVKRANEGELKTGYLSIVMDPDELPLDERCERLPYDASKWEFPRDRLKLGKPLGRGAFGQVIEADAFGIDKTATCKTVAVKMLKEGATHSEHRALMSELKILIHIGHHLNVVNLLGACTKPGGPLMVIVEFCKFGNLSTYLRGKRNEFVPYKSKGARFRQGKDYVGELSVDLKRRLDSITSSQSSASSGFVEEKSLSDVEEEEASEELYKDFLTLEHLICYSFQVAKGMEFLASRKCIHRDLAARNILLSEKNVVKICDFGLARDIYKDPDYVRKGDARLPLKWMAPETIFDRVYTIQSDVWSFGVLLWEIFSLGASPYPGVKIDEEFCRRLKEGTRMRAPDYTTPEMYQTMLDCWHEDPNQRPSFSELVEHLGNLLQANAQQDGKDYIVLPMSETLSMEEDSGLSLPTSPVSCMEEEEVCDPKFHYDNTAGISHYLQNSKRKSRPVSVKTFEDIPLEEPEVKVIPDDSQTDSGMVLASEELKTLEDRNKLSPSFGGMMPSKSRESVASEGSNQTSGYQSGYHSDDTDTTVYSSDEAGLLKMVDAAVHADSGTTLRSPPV

[4] = target: Mast/stem cell growth factor receptor Kit (Homo sapiens, UniProt P10721); experiment: Inhibition of cKit
Chain of Mast/stem cell growth factor receptor Kit (P10721 whole entry): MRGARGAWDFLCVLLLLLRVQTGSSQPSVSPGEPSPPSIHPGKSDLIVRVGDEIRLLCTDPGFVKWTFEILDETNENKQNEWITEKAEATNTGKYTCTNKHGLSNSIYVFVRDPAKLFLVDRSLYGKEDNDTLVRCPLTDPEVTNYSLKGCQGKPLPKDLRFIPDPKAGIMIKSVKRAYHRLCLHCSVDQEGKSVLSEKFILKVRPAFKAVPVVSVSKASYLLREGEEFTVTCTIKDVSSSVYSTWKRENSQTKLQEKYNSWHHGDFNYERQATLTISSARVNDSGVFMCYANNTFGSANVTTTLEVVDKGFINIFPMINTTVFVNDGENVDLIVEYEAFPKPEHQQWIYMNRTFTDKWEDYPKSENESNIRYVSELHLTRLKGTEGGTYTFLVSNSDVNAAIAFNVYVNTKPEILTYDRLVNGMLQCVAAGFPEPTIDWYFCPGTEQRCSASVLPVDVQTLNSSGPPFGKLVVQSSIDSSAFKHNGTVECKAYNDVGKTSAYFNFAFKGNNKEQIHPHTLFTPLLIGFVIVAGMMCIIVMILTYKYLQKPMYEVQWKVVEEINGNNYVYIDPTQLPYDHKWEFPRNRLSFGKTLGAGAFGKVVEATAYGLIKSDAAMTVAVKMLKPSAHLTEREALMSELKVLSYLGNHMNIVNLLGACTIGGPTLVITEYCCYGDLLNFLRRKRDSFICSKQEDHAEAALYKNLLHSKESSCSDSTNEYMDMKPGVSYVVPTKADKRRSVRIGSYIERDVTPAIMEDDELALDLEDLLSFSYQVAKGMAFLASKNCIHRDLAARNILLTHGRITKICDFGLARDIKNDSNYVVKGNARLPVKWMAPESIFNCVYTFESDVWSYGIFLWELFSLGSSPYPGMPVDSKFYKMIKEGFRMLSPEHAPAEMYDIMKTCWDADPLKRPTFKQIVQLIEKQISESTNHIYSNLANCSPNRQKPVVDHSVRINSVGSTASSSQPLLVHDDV

[5] = target: Serine/threonine-protein kinase PAK 4 (Homo sapiens, UniProt O96013); experiment: Inhibition of Pak4
Chain of Serine/threonine-protein kinase PAK 4 (O96013 whole entry): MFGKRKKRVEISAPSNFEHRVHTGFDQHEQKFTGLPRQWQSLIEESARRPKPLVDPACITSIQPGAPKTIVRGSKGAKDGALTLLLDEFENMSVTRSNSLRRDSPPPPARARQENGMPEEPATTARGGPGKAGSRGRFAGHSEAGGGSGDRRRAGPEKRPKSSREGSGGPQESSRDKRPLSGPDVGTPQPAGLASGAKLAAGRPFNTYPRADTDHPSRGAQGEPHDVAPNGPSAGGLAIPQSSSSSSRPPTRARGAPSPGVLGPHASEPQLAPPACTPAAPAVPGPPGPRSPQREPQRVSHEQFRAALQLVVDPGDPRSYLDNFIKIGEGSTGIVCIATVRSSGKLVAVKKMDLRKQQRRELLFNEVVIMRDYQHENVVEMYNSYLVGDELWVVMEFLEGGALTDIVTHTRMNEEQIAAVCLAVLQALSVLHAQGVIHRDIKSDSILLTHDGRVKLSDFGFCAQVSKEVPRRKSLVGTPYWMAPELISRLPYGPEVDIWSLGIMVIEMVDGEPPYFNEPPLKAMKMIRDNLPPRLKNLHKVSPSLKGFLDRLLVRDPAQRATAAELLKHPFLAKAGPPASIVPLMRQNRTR

[6] = Inhibition of CK2
[7] = target: RAC-alpha serine/threonine-protein kinase (Homo sapiens, UniProt P31749); experiment: Inhibition of Akt1
Chain of RAC-alpha serine/threonine-protein kinase (P31749 whole entry): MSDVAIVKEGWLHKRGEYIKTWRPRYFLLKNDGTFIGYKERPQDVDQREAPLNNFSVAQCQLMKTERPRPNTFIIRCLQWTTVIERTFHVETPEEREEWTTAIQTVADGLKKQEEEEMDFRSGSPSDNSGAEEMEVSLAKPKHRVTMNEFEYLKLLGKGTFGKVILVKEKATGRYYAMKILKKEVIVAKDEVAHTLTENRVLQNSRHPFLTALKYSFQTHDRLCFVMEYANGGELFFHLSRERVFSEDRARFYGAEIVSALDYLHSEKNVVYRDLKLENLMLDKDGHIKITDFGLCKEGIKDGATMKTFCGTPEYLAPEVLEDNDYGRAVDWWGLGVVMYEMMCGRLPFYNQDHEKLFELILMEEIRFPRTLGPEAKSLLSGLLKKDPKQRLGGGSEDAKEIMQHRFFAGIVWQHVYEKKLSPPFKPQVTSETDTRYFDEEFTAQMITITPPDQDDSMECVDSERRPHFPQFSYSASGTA

[8] = target: Serine/threonine-protein kinase PLK1 (Homo sapiens, UniProt P53350); experiment: Inhibition of Plk1
Chain of Serine/threonine-protein kinase PLK1 (P53350 whole entry): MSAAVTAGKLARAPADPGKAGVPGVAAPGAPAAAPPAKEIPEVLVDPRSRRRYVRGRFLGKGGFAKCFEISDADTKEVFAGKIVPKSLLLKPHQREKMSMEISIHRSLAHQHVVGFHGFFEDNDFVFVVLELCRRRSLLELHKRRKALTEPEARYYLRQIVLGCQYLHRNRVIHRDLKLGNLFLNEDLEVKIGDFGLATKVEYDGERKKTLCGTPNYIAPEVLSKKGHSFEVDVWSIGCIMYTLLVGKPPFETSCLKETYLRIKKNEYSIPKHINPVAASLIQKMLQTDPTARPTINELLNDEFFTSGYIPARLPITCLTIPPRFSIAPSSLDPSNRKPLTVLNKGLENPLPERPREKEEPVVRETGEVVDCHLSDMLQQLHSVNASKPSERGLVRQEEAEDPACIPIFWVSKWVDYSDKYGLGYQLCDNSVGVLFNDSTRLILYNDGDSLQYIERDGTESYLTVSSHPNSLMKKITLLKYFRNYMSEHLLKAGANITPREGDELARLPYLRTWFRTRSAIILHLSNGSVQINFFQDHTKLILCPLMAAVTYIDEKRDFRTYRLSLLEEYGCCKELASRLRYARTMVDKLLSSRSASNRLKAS

[9] = target: T1, Vascular endothelial growth factor receptor 2; experiment: Inhibition of KDR in presence of 10 uM ATP
[10] = Inhibition of CK2 at 100 uM

| Compound | IC50 [1] [nM] | IC50 [2] [nM] | IC50 [3] [nM] | IC50 [4] [nM] | IC50 [5] [nM] | IC50 [6] [nM] | IC50 [7] [nM] | IC50 [8] [nM] | IC50 [9] [nM] | inhibition [10] [%] |
| --- | --- | --- | --- | --- | --- | --- | --- | --- | --- | --- |
| Nc1ncnc2c1N=C(c1ccc(NC(=O)Nc3cccc(C(F)(F)F)c3F)cc1)CCN2 | 49 | 3 | 1520 | 28 |  |  |  |  |  |  |
| Nc1ncnc2c1N=C(c1ccccc1)CCN2 |  |  |  |  | > 100000 | 4000 | 92000 | > 100000 | 3000 |  |
| Cc1cccc(C2=Nc3c(N)ncnc3NCC2)c1 |  |  |  |  | > 100000 | 12000 | > 100000 | 50000 | 3000 |  |
| Nc1ncnc2c1N=C(c1ccc(Cl)cc1)CCN2 |  |  |  |  | > 100000 | > 100000 | > 100000 | > 100000 | 3000 |  |
| Nc1ncnc2c1N=C(c1cccc(Cl)c1)CCN2 |  |  |  |  | > 100000 |  | > 100000 | > 100000 | 600 | 64 |
| Cc1ccc(C2=Nc3c(N)ncnc3NCC2)cc1 |  |  |  |  | > 100000 | > 100000 | > 100000 | > 100000 | 4000 |  |
| Nc1nc(N)c2c(n1)NCCC(c1ccc(NC(=O)Nc3ccccc3)cc1)=N2 | 2860 | 2860 |  | > 13000 |  |  |  |  |  |  |
| Nc1ncnc2c1N=C(c1cccc(NC(=O)Nc3cccc(C(F)(F)F)c3)c1)CCN2 |  |  | 790 | 91 |  |  |  |  |  |  |
| Nc1ncnc2c1N=C(c1ccc(NC(=O)Nc3ccc(C(F)(F)F)cc3)cc1)CCN2 | 110 | 9 | 2440 | 35 |  |  |  |  |  |  |
| Nc1ncnc2c1N=C(c1ccc(NC(=O)Nc3ccc(F)c(C(F)(F)F)c3)cc1)CCN2 | 5 | 7 | 345 | 22 |  |  |  |  |  |  |
| Nc1ncnc2c1N=C(c1ccc(NC(=O)Nc3ccc(Cl)c(C(F)(F)F)c3)cc1)CCN2 | 6 | 16 | 49 | 50 |  |  |  |  |  |  |
| Nc1ncnc2c1N=C(c1ccc(NC(=O)Nc3cccc(C(F)(F)F)c3)cc1)CCN2 | 3 | 2 | 13 |  |  |  |  |  |  |  |
| Nc1ncnc2c1N=C(c1ccc(NC(=O)Nc3ccccc3)cc1)CCN2 | 951 |  |  |  |  |  |  |  |  |  |
| Cc1ccc(F)c(NC(=O)Nc2ccc(C3=Nc4c(N)ncnc4NCC3)cc2)c1 | 65 | 13 | 311 | 37 |  |  |  |  |  |  |
| Nc1ncnc2c1N=C(c1ccc(NC(=O)Nc3cccc(Cl)c3)cc1)CCN2 | 19 | 6 | 50 | 18 |  |  |  |  |  |  |
| Cc1ccc(C2=Nc3c(N)ncnc3NCC2)cc1NC(=O)Nc1cccc(C(F)(F)F)c1 |  |  | 52 | 12 |  |  |  |  |  |  |
| Nc1nc(N)c2c(n1)NCCC(c1cccc(Cl)c1)=N2 |  |  |  |  | > 100000 |  | > 100000 | > 100000 | 21000 |  |
| Nc1nc(N)c2c(n1)NCCC(c1ccc(Cl)cc1)=N2 |  |  |  |  | > 100000 | > 100000 | > 100000 | > 100000 | 9000 |  |
| Nc1nc(N)c2c(n1)NCCC(c1ccccc1)=N2 |  |  |  |  | > 100000 | > 100000 | > 100000 | > 100000 | 35000 |  |
| Nc1ncnc2c1N=C(c1cccc(NC(=O)Nc3ccccc3)c1)CCN2 | 888 | 2700 |  | 3020 |  |  |  |  |  |  |
| Nc1ncnc2c1N=C(c1ccc(NC(=O)Nc3cc(C(F)(F)F)ccc3F)cc1)CCN2 | 4 |  | 121 |  |  |  |  |  |  |  |
